In ChEMBL document CHEMBL3991601, “The target landscape of clinical kinase drugs” (Science, 2017) one finds Kd data, which are given here for 9 compounds.

The source made the active and inactive calls. For most assays here, no stated cut-off is given here; in the data, actives have a measured Kd and inactives only a lower limit.

The target of test [1] is Mitogen-activated protein kinase 7 (Homo sapiens, UniProt Q13164).
Test [2] has as its target Ribosomal protein S6 kinase alpha-4 (Homo sapiens, UniProt O75676).
Test [3] deals with Elongation factor Tu, mitochondrial (Homo sapiens, UniProt P49411).
Test [4] addresses Receptor-interacting serine/threonine-protein kinase 2 (Homo sapiens, UniProt O43353).
The target of test [5] is Tyrosine-protein kinase Fyn (Homo sapiens, UniProt P06241).
Chain of Tyrosine-protein kinase Fyn (P06241 whole entry): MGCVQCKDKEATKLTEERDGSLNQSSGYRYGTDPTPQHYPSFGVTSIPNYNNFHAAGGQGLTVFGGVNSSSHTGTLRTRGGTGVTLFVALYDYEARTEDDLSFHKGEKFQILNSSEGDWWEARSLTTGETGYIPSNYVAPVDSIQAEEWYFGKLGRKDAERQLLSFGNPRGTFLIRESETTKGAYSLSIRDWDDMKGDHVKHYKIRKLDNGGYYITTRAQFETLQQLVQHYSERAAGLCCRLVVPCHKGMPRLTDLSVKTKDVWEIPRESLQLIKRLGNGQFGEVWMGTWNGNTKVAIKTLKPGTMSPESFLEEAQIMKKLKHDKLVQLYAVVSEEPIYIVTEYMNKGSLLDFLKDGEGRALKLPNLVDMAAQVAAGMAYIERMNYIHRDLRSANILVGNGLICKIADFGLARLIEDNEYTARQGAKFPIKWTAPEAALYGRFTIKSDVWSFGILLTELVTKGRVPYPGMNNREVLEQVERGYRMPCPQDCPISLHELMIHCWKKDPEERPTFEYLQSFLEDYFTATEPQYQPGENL
Test [6] has as its target cAMP-dependent protein kinase catalytic subunit alpha (Homo sapiens, UniProt P17612).
The target of test [7] is Macrophage-stimulating protein receptor (Homo sapiens, UniProt Q04912).
Chain of Macrophage-stimulating protein receptor (Q04912 25-304 limits assumed): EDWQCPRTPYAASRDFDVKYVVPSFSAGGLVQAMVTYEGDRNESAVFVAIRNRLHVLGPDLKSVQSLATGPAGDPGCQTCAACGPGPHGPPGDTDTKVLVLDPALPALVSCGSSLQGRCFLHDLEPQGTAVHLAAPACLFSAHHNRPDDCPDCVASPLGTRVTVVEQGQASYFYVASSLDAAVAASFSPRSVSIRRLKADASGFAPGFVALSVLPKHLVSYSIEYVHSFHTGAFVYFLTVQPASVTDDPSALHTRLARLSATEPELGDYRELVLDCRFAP
Chain of Macrophage-stimulating protein receptor (Q04912 310-1400 limits assumed): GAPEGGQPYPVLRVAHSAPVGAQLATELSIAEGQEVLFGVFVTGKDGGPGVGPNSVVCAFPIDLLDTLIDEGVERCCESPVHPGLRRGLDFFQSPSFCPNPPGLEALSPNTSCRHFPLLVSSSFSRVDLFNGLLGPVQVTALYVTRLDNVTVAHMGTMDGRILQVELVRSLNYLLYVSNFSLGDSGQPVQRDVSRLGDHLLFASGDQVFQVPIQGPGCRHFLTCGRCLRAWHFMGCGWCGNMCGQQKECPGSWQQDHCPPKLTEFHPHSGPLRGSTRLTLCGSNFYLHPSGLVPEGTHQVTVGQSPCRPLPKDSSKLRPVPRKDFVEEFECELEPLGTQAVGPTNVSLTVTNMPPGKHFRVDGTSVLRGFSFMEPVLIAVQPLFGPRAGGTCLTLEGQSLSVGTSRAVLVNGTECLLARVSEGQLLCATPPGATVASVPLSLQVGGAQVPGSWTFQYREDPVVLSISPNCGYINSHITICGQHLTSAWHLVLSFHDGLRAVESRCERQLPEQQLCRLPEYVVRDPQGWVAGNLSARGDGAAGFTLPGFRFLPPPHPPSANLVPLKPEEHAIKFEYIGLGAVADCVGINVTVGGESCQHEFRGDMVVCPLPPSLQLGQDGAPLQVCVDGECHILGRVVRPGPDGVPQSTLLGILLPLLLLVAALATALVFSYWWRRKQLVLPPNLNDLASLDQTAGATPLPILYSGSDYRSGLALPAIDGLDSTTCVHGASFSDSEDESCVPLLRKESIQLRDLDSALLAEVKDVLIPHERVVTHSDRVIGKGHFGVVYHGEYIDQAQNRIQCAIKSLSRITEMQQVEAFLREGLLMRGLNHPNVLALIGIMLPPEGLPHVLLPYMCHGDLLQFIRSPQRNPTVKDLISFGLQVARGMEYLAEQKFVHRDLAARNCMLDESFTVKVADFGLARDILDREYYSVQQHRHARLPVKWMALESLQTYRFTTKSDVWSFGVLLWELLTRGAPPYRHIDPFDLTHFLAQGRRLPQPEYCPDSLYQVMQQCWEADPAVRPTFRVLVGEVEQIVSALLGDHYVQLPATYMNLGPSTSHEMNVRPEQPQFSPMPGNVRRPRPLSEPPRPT
Test [8] has as its target Tyrosine-protein kinase CSK (Homo sapiens, UniProt P41240).
The target of test [9] is T1, ATP-dependent RNA helicase DDX42 (Homo sapiens, UniProt Q86XP3).
T1 sequence (Q86XP3 whole entry): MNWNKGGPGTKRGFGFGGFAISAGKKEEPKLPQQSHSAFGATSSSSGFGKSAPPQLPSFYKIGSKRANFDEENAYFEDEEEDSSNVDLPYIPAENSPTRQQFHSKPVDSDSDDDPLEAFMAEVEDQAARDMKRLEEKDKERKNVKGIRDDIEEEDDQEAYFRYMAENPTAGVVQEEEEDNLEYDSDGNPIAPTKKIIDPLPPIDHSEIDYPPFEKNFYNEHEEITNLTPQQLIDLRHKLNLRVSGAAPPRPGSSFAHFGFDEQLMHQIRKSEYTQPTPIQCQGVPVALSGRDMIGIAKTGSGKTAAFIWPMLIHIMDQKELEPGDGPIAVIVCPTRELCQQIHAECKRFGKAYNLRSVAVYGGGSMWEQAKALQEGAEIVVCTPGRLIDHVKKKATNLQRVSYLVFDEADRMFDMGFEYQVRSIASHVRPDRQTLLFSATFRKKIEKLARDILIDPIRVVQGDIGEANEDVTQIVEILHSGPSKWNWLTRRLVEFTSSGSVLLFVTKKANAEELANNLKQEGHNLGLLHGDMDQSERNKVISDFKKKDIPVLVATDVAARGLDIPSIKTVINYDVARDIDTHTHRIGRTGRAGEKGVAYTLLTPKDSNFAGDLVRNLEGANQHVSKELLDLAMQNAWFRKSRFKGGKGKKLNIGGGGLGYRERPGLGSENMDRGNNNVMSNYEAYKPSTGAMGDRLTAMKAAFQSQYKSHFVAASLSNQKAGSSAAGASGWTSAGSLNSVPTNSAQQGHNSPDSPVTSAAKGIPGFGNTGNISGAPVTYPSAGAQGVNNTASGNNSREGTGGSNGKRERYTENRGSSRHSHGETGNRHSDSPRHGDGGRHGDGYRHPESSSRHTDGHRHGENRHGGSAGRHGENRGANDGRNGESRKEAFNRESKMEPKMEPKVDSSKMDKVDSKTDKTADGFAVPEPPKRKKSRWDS

The target in another test is T2, ADP/ATP translocase 2 (Homo sapiens, UniProt P05141).
T2 sequence (P05141 whole entry): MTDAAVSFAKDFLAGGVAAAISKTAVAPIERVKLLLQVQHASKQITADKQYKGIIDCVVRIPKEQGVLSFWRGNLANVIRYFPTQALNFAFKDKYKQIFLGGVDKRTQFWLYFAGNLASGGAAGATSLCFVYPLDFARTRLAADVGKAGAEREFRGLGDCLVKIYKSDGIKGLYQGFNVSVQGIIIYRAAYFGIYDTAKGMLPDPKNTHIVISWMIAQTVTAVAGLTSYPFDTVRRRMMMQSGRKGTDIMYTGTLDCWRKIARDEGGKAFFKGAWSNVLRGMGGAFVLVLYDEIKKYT

Test [10] deals with T3, Delta(24)-sterol reductase (Homo sapiens, UniProt Q15392).
T3 sequence (Q15392 whole entry): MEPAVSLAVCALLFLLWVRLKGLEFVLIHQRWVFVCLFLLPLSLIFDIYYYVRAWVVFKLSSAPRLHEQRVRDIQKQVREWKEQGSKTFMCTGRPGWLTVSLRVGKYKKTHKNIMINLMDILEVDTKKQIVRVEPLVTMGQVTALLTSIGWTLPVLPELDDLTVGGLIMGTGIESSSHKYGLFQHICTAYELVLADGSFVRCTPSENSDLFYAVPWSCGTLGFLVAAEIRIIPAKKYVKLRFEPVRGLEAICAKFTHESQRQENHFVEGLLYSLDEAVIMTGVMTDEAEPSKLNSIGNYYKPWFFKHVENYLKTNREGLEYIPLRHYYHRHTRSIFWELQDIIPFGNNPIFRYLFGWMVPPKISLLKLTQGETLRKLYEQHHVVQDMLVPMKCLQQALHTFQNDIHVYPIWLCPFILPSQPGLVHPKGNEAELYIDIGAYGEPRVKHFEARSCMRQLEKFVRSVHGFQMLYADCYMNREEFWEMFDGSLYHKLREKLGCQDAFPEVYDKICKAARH

For test [11], the target named is Tyrosine-protein kinase ABL1 (Homo sapiens, UniProt P00519).
Chain of Tyrosine-protein kinase ABL1 (P00519 whole entry): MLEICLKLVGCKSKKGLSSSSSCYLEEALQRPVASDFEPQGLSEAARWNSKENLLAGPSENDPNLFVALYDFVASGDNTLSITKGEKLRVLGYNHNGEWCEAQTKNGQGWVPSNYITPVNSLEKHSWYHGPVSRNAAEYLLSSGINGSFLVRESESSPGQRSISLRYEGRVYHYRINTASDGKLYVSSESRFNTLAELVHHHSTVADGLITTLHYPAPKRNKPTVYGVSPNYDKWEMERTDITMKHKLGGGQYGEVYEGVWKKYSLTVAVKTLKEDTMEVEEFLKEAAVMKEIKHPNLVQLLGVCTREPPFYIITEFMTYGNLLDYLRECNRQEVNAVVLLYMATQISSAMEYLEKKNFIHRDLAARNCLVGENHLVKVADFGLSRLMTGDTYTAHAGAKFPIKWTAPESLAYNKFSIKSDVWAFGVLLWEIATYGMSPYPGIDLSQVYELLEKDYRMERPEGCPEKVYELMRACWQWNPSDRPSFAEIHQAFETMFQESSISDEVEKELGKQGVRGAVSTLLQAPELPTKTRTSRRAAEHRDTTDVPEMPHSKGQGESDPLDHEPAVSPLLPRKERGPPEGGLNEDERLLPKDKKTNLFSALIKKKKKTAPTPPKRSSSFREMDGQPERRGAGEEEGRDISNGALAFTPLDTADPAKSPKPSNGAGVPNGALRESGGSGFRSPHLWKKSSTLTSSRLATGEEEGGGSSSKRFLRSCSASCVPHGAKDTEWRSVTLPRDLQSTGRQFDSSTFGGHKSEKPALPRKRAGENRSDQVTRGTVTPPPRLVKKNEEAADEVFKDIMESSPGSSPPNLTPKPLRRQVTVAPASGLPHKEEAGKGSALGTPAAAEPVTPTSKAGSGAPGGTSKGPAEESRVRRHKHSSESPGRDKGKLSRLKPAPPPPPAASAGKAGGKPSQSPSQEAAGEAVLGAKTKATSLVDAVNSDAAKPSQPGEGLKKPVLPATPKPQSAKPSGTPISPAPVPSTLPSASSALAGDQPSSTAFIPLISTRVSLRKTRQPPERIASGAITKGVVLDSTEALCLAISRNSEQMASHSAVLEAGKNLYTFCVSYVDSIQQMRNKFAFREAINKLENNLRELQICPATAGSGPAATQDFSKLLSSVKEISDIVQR
A further test addresses T4, Activin receptor type-1 (Homo sapiens, UniProt Q04771).
T4 sequence (Q04771 whole entry): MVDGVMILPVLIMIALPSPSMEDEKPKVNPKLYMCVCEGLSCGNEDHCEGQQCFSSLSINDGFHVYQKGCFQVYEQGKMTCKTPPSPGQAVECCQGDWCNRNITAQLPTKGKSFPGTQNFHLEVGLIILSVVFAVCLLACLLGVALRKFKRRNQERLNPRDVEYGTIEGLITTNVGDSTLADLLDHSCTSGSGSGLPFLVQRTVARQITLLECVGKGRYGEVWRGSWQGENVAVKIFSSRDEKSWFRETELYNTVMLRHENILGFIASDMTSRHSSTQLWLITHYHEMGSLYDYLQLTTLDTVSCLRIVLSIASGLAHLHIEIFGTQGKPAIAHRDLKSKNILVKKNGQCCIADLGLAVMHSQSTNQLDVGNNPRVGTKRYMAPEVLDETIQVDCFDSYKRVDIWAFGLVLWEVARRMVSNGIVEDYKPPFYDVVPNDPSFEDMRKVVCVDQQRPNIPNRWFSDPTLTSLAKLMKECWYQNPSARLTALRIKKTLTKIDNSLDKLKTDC

Chain of Mitogen-activated protein kinase 7 (Q13164 whole entry): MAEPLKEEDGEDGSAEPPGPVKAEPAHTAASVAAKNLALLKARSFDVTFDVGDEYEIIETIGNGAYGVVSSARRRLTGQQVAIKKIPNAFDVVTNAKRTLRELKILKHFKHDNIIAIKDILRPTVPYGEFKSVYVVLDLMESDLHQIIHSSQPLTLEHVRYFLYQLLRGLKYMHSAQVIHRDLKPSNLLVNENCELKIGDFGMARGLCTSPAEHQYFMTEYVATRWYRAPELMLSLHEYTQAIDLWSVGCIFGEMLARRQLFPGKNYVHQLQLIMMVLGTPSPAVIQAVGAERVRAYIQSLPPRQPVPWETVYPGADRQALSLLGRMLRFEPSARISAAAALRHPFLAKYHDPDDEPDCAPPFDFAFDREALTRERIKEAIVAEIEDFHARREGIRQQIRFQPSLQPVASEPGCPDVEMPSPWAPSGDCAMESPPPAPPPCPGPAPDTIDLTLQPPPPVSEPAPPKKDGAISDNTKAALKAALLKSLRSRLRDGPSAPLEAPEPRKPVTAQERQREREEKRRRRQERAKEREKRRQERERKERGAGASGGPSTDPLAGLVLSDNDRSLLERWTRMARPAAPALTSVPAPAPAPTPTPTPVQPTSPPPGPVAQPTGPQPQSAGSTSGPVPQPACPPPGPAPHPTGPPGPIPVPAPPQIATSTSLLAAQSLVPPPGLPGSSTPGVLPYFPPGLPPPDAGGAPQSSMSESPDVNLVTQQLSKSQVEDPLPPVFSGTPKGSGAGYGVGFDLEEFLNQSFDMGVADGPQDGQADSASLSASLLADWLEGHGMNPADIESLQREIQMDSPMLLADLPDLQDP
Chain of Tyrosine-protein kinase CSK (P41240 whole entry): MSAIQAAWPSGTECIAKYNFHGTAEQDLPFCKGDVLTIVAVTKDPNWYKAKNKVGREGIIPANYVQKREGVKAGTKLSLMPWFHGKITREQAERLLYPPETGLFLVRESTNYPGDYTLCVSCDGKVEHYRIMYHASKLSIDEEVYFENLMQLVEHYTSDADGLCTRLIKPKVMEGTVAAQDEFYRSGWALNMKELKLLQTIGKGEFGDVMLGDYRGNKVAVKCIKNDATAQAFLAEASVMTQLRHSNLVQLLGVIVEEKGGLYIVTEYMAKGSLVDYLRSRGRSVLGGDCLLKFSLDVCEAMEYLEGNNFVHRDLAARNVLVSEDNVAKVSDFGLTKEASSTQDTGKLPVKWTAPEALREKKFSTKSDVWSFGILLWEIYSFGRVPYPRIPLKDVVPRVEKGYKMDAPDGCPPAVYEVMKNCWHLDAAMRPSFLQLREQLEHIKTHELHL
Chain of Ribosomal protein S6 kinase alpha-4 (O75676 whole entry): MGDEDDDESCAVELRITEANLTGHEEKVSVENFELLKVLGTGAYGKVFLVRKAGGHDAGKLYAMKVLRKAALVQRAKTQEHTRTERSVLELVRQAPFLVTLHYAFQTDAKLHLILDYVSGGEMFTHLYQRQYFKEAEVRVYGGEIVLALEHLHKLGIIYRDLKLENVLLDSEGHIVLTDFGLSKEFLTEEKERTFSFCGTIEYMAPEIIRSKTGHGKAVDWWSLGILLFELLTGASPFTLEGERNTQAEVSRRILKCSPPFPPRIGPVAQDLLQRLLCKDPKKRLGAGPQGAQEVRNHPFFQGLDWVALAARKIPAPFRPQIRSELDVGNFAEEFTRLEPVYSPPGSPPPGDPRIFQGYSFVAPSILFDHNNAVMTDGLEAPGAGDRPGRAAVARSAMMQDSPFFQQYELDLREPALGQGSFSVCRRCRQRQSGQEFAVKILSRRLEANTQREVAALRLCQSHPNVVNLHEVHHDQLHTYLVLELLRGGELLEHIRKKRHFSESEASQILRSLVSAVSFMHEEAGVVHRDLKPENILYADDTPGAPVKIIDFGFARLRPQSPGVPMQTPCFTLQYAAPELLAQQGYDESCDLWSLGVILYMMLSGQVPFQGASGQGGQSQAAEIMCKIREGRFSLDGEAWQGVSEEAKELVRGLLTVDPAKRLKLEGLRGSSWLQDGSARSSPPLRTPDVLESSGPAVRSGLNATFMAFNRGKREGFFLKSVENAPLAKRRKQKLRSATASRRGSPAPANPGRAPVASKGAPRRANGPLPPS

For `S=C(NCc1ccc2c(c1)OCO2)N1CCN(c2ncnc3c2oc2ccccc23)CC1` [AMUVATINIB], the Kd in test [1], in [2], in [3], in [4], in test [5] and in [6] was > 30 µM (inactive) throughout. The Kd (in test [7]; in test [8]; in [9]; on ADP/ATP translocase 2; in test [10]; in test [11]) was > 30 µM (inactive) each time. Also, the Kd – broadly, the constant that tells how readily two partners part at equilibrium – at Activin receptor type-1 is > 30 µM (inactive).
For the compound `COc1cccc2cc(-c3nc([C@H]4CC[C@H](C(=O)O)CC4)n4ncnc(N)c34)[nH]c12` [OSI-027], the Kd is > 30 µM (inactive) in test [1]; > 30 µM (inactive) in test [2]; > 30 µM (inactive) in test [3]; 1.16 µM (active) in [4]; > 30 µM (inactive) in test [5]; > 30 µM (inactive) in [6]. The Kd (in [7]; in test [8]; in test [9]; at ADP/ATP translocase 2; in [10]; in test [11]) was > 30 µM (inactive) throughout. Further, on Activin receptor type-1, the Kd is > 30 µM (inactive).
Regarding `COc1cc2ncnc(Nc3ccc(O)cc3)c2cc1OC` [WHI-P131], the Kd was > 30 µM (inactive) in test [1]; > 30 µM (inactive) in test [2]; > 30 µM (inactive) in [3]; 5.94 µM (active) in test [4]; > 30 µM (inactive) in test [5]; > 30 µM (inactive) in [6]. The Kd (in [7]; in [8]; in test [9]; on ADP/ATP translocase 2; in [10]; in [11]) was > 30 µM (inactive) throughout. Besides, the Kd on Activin receptor type-1 was > 30 µM (inactive).
`CNC(=O)c1ccc(Nc2ncc(C(F)(F)F)c(NCc3nccnc3N(C)S(C)(=O)=O)n2)cc1` [DEFACTINIB]: the Kd in [1], in test [2], in test [3], in [4], in [5] and in test [6] was > 30 µM (inactive) in each case. In addition, the Kd (in test [7]; in test [8]; in test [9]; on ADP/ATP translocase 2; in [10]; in [11]) was > 30 µM (inactive) throughout. Besides, at Activin receptor type-1, the Kd is > 30 µM (inactive).
Regarding `CCN1CCN(Cc2ccc(Nc3ncc(F)c(-c4cc(F)c5nc(C)n(C(C)C)c5c4)n3)nc2)CC1` [ABEMACICLIB], the Kd in test [1], in [2], in test [3], in [4], in test [5] and in test [6] was > 30 µM (inactive) throughout. Further, the Kd (in [7]; in test [8]; in [9]; on ADP/ATP translocase 2; in test [10]; in test [11]) was > 30 µM (inactive) each time. Besides, the Kd at Activin receptor type-1 was > 30 µM (inactive).
As for `C[C@@H]1COC(Nc2ccc3ncnc(Nc4ccc(OCc5nccs5)c(Cl)c4)c3c2)=N1` [VARLITINIB], the Kd in [1] was > 30 µM (inactive); in test [2] it was > 30 µM (inactive); in [3] it was > 30 µM (inactive); in test [4], 0.81 µM (active); in test [5], > 30 µM (inactive); in test [6], > 30 µM (inactive). For the same compound, the Kd (in test [7]; in test [8]; in test [9]; on ADP/ATP translocase 2; in [10]; in test [11]) was > 30 µM (inactive) in each case. At Activin receptor type-1, the Kd was > 30 µM (inactive).
With `NC(=O)c1ccc(N(C(N)=O)c2c(F)cccc2F)nc1-c1ccc(F)cc1F` [VX-702], the Kd in [1], in [2], in test [3], in test [4], in test [5] and in test [6] was > 30 µM (inactive) throughout. Further, the Kd (in [7]; in [8]; in test [9]; at ADP/ATP translocase 2; in [10]; in test [11]) was > 30 µM (inactive) throughout. Also, the Kd on Activin receptor type-1 is > 30 µM (inactive).
Consider `NC[C@@](O)(c1ccc(Cl)cc1)c1ccc(-c2cn[nH]c2)cc1` [AT-13148], for which the Kd is > 30 µM (inactive) in [2]; > 30 µM (inactive) in test [3]; > 30 µM (inactive) in test [4]; > 30 µM (inactive) in test [5]; 0.015 µM (active) in [6]; > 30 µM (inactive) in [7]. Also, the Kd (in test [8]; in test [9]; at ADP/ATP translocase 2; in test [10]; in test [11]; on Activin receptor type-1) was > 30 µM (inactive) in each case.
Regarding `COc1cc2ncnc3c2cc1OCCCCCN(C)Cc1ccc(Br)cc1N3` [JNJ-26483327], the Kd was > 30 µM (inactive) in [1]; > 30 µM (inactive) in test [2]; > 30 µM (inactive) in test [3]; 0.39 µM (active) in [4]; > 30 µM (inactive) in test [5]; > 30 µM (inactive) in test [6]. Also, the Kd (in [7]; in [8]; in test [9]; at ADP/ATP translocase 2; in test [11]; on Activin receptor type-1) was > 30 µM (inactive) in each case.
